Compound	melting point [°C]
CCOC(=O)c1c2c(cn1CN(CC)CC)C1=C(NC(C(=O)OCc3ccccc3)CC1)[SH]2c1ccc(OC)c(OC)c1 (stereo not shown) [Example 16A, ethyl 2-benzyloxycarbonyl-8-(3,4-dimethoxyphenyl)-6-diethylaminomethyl-2,3-dihydro-1H-pyrrolo[3′,4′:4,5]-thieno[2,3-b]pyridine-7-carboxylate]	142 to 143
COc1ccc(-c2c(Cl)c(CN3CCN(C(C)=O)CC3)nc3sc4c(c23)CCN(Cc2ccccc2)C4)cc1OC [Example 14B, 2-(4-acetylpiperazin-1-ylmethyl)-7-benzyl-3-chloro-4-(3,4-dimethoxyphenyl)-5,6,7,8-tetrahydrothieno[2,3-b:5,4-c′]dipyridine]	183 to 184
CCOC(=O)c1c(CN(CC)CC)nc2sc3c(c2c1-c1ccc(CC)cc1)CCN(OC(=O)CC)C3 [Example 39A]	97 to 99
COc1ccc(-c2c(Cl)c(COC3=NN(c4ccccc4)CC3)nc3sc4c(c23)CCN(Cc2ccccc2)C4)cc1OC [Example 32B, 7-benzyl-3-chloro-4-(3,4-dimethoxyphenyl)-2-(1-phenyl-2-pyrazolin-3-yloxymethyl)-5,6,7,8-tetrahydrothieno[2,3-b:5,4-c′]dipyridine]	157 to 158
COc1ccc(-c2c(Cl)c(CNC(C)(C)C)nc3sc4c(c23)CCN(C(=O)c2ccccc2)C4)cc1OC [Example 8B, 7-benzoyl-2-(tert-butylaminomethyl)-3-chloro-4-(3,4-dimethoxyphenyl)-5,6,7,8-tetrahydrothieno[2,3-b:5,4-c′]dipyridine]	204 to 205
CCOC(=O)c1c(CN(CC)CC)nc2sc3ncccc3c2c1-c1ccc(OC)c(OC)c1 [Example 64A, ethyl 2-diethylaminomethyl-4-(3,4-dimethoxyphenyl)thieno[2,3-b:5,4-b′]dipyridine-3-carboxylate]	156 to 157
CCN(CC)Cc1nc2sc3c(c2c(-c2ccc(OC)c(OC)c2)c1Cl)CCN(Cc1ccccc1)C3 [Example 2B, 7-benzyl-3-chloro-2-(N,N-diethylaminomethyl)-4-(3,4-dimethoxyphenyl)-5,6,7,8-tetrahydrothieno[2,3-b:5,4-c′]dipyridine]	150 to 151
COc1cc(-c2c(Cl)c(CNC(C)(C)C)nc3sc4c(c23)CCNC4)ccc1OC(C)C [Example 11B, 2-(tert-butylaminomethyl)-3-chloro-4-(4-isopropoxy-3-methoxyphenyl)-5,6,7,8-tetrahydrothieno[2,3-b:5,4-c′]dipyridine]	157 to 158
CCOC(=O)c1c(Cn2cncn2)nc2sc3ccncc3c2c1-c1ccc(OC)c(OC)c1 [Example 66A, ethyl 4-(3,4-dimethoxyphenyl)-2-(1,2,4-triazol-1-ylmethyl)thieno[2,3-b:4,5-c′]dipyridine-3-carboxylate]	166 to 167
CCOC(=O)c1c(Cn2cncn2)nc2sc3c(c2c1-c1ccc(OC)c(OC)c1)CCNC3 [Example 21A, ethyl 4-(3,4-dimethoxyphenyl)-5,6,7,8-tetrahydro-2-(1,2,4-triazol-1-ylmethyl)thieno[2,3-b:5,4-c′]dipyridine-3-carboxylate]	164 to 165
COc1ccc(C2(Cl)CC(CNC(C)(C)C)=Nc3sc4c(c32)CCNC4)cc1OC (stereo not shown) [Example 10B, 2-(tert-butylaminomethyl)-4-chloro-4-(3,4-dimethoxyphenyl)-5,6,7,8-tetrahydrothieno(2,3-b:5,4-c′]dipyridine]	162 to 163
CCOC(=O)c1c(CN(C)O)nc2sc3c(c2c1-c1ccc(OC)c(OC)c1)CCN(C(=O)c1ccccc1)C3 [Example 25A, ethyl 7-benzoyl-4-(3,4-dimethoxyphenyl)-2-(N-hydroxy-N-methylaminomethyl)-5,6,7,8-tetrahydrothieno[2,3-b:5,4-c′]dipyridine-3-carboxylate]	129 to 130
CCOC(=O)c1c(Cn2cncn2)nc2sc3c(c2c1-c1ccc(OC)c(OC)c1)CNCC3 [Example 63A, ethyl 4-(3,4-dimethoxyphenyl)-5,6,7,8-tetrahydro-2-(1,2,4-triazol-1-ylmethyl)thieno[2,3-b:4,5-c′]dipyridine-3-carboxylate]	180 to 181
CCOC(=O)c1c(CCCCn2cncn2)nc2sc3cnccc3c2c1-c1ccc(OC)c(OC)c1 [Example 30A, ethyl 4-(3,4-dimethoxyphenyl)-2-[4-(1,2,4-triazol-1-yl)butyl]thieno[2,3-b:5,4-c′]dipyridine-3-carboxylate]	118 to 119
CCOC(=O)c1c(CCc2nccn2C)nc2sc3c(c2c1-c1ccc(OC)c(OC)c1)CCN(C(=O)c1ccccc1)C3 [Example 23A, ethyl 7-benzoyl-4-(3,4-dimethoxyphenyl)-5,6,7,8-tetrahydro-2-[2-(1-methylimidazol-2-yl)ethyl]thieno[2,3-b:5,4-c′]dipyridine-3-carboxylate]	170 to 217
CCOC(=O)c1c(Cc2nc[nH]n2)nc2sc3cnccc3c2c1-c1ccc(OC)c(OC)c1 [Example 22A, ethyl 4-(3,4-dimethoxyphenyl)-2-(1,2,4-triazol-ylmethyl)thieno[2,3-b:5,4-c′]dipyridine-3-carboxylate]	172 to 174

Second part, the compound after the results:

melting point [°C]	Compound
141 to 142	CCOC(=O)c1c(CN(CC)CC)nc2sc3ccncc3c2c1-c1ccc(OC)c(OC)c1 [Example 55A, ethyl 2-diethylaminomethyl-4-(3,4-dimethoxyphenyl)thieno[2,3-b:4,5-c′]dipyridine-3-carboxylate]
128 to 129	CCC(C)(C)NCc1nc2sc3c(c2c(-c2ccc(OC)c(OC)c2)c1Cl)CCN(Cc1ccccc1)C3 [Example 4B, 2-(tert-amylaminomethyl)-7-benzyl-3-chloro-4-(3,4-dimethoxyphenyl)-5,6,7,8-tetrahydrothieno[2,3-b:5,4-c′]dipyridine]
99 to 101	CCOC(=O)c1c(CN2CCC(C(=O)OCC)CC2)nc2sc3c(c2c1-c1ccc(OC)c(OC)c1)CCN(C(=O)c1ccc(Cl)cc1)C3 [Example 3A, ethyl 7-(4-chlorobenzoyl)-4-(3,4-dimethoxyphenyl)-2-(4-ethoxycarbonylpiperidinomethyl)-5,6,7,8-tetrahydrothieno-[2,3-b:5,4-c′]dipyridine-3-carboxylate]
138 to 139	CCOC(=O)c1c(CN(CC)CC)nc2sc3c(c2c1-c1ccc(OC)c(OC)c1)CCCN3C(=O)OCc1ccccc1 [Example 58A, ethyl 8-benzyloxycarbonyl-2-diethylaminomethyl-4-(3,4-dimethoxyphenyl)-5,6,7,8-tetrahydrothieno[2,3-b:5,4-b′]dipyridine-3-carboxylate]
127 to 129	CCOC(=O)c1c(CCCn2cncn2)nc2sc3cnccc3c2c1-c1ccc(OC)c(OC)c1 [Example 29A, ethyl 4-(3,4-dimethoxyphenyl)-2-[3-(1,2,4-triazol-1-yl)propyl]thieno[2,3-b:5,4-c′]dipyridine-3-carboxylate]
123 to 124	CCOC(=O)c1c2c(cn1CN(CC)CC)C1=C(NC(C(C)=O)CC1)[SH]2c1ccc(OC)c(OC)c1 (stereo not shown) [Example 32A, ethyl 2-acetyl-8-(3,4-dimethoxyphenyl)-6-diethylaminomethyl-2,3-dihydro-1H-pyrrolo[3′,4′:4,5]thieno[2,3-b]pyridine-7-carboxylate]
112 to 114	CCOC(=O)c1c(CN(CC)CC)nc2sc3c(c2c1-c1ccc(CC)cc1)CCN(C(=O)Nc1ccccc1)C3 [Example 36A]
91 to 92	CCOC(=O)c1c(CN(CC)CC)nc2sc3c(c2c1-c1ccc(OC)c(OC)c1)CN(C(=O)c1ccc(Cl)cc1)CC3 [Example 53A, ethyl 6-(4-chlorobenzoyl)-2-diethylaminomethyl-4-(3,4-dimethoxyphenyl)-5,6,7,8-tetrahydrothieno[2,3-b:4,5-c′]dipyridine-3-carboxylate]
131 to 132	COc1ccc(-c2c(Cl)c(CNC3CC3)nc3sc4c(c23)CCN(Cc2ccccc2)C4)cc1OC [Example 5B, 7-benzyl-3-chloro-2-(cyclopropylaminomethyl)-4-(3,4-dimethoxyphenyl)-5,6,7,8-tetrahydrothieno[2,3-b:5,4-c′]dipyridine]
195 to 197	CCOC(=O)c1c(CCn2cncn2)nc2sc3c(c2c1-c1ccc(OC)c(OC)c1)CCN(C(=O)c1ccc(Cl)cc1)C3 [Example 26A, ethyl 7-(4-chlorobenzoyl)-4-(3,4-dimethoxyphenyl)-5,6,7,8-tetrahydro-2-[2-(1,2,4-triazol-1-yl)ethyl]thieno[2,3-b:5,4-c′]dipyridine-3-carboxylate]
179 to 181	CCOC(=O)c1c(CN(CC)CC)nc2sc3cnccc3c2c1-c1ccc(O)c(OC)c1 [Example 51A, ethyl 2-diethylaminomethyl-4-(4-hydroxy-3-methoxyphenyl)thieno[2,3-b:5,4-c′]dipyridine-3-carboxylate]
165 to 166	COc1ccc(-c2c(Cl)c(Cn3cncn3)nc3sc4c(c23)CCN(Cc2ccccc2)C4)cc1OC [Example 26B, 7-benzyl-3-chloro-4-(3,4-dimethoxyphenyl)-5,6,7,8-tetrahydro-2-(1,2,4-triazol-1-ylmethyl)thieno[2,3-b:5,4-c′]dipyridine]
134 to 135	COc1ccc(-c2c(Cl)c(CNC(C)(C)C)nc3sc4c(c23)CCN(Cc2ccccc2)C4)cc1OC [Example 3B, 7-benzyl-2-(tert-butylaminomethyl)-3-chloro-4-(3,4-dimethoxyphenyl)-5,6,7,8-tetrahydrothieno[2,3-b:5,4-c′]dipyridine]
161 to 162	CCOC(=O)c1c(CN(CC)CC)nc2sc3c(c2c1-c1ccc(OC)c(OC)c1)CCN(S(=O)(=O)c1ccccc1)C3 [Example 9A, ethyl 7-benzenesulfonyl-2-(N,N-diethylaminomethyl)-4-(3,4-dimethoxyphenyl)-5,6,7,8-tetrahydrothieno[2,3-b:5,4-c′]dipyridine-3-carboxylate]
228 to 230	COc1ccc(-c2c(Cl)c(CN3CCCC3=O)nc3sc4cnccc4c23)cc1OC [Example 36B, 3-chloro-4-(3,4-dimethoxyphenyl)-2-(2-oxopyrrolidin-1-ylmethyl)thieno[2,3-b:5,4-c′]dipyridine]

Reference: patent US6403606B1, “Thienopyridine derivatives and their use” (Takeda Chemical Industries Ltd., priority 1996, dated 2002)
